Each molecule was assayed against Recombinant human ULK1 (1-649) (Homo sapiens (Human), UniProt O75385) (assay: ULK1 ADP Glo kinase activity assay, new method (ULKtide peptide substrate)). Settings: 25° C., 40 minutes, read-out: ULK1 biochemical IC50.
Summary of the method: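 GST-tagged human ULK1 (1-649) from Sf9 cells was reacted with ULKtide peptide and ATP for 40 min at 25 °C across 12-point compound dilutions from 10 μM. ADP formed was quantified by ADP-Glo luminescence; IC50 came from four-parameter fits relative to DMSO controls.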

Recombinant human ULK1 (1-649), sequence (O75385 1-649): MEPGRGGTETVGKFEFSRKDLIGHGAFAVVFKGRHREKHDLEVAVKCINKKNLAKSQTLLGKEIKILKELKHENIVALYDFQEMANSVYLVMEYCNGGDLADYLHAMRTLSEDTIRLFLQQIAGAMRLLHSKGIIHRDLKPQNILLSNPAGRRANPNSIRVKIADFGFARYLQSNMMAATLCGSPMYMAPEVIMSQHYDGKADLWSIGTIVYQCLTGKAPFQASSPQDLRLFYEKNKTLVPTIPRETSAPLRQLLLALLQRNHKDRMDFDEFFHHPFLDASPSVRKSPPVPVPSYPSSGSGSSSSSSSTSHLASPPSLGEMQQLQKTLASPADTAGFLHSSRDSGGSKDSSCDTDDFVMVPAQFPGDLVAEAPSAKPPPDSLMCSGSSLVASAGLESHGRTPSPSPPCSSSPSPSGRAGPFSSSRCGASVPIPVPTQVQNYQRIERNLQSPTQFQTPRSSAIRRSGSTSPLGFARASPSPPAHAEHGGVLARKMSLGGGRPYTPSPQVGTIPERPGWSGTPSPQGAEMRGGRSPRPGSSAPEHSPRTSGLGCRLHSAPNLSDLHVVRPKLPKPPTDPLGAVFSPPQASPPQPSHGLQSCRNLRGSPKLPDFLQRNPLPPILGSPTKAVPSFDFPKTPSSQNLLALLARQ

SMILES | IC50 [nM]
CCc1cc(N2C[C@H]3CC[C@@H](C2)N3)ccc1Nc1ncc(C(F)(F)F)c(-c2cc3c(s2)C(=O)N(C2CC2)CCS3(=O)=O)n1 [Example 324, 7-(2-((4-((1R,5S)-3,8-diazabicyclo[3.2.1]octan-3-yl)-2-ethylphenyl)amino)-5-(trifluoromethyl)pyrimidin-4-yl)-4-cyclopropyl-3,4-dihydrothieno[2,3-f][1,4]thiazepin-5(2H)-one 1,1-dioxide] | ≤ 5
CCc1cc(N2C[C@H]3CC[C@@H](C2)N3C)ccc1Nc1ncc(C(F)(F)F)c(-c2cc3c(s2)C(=O)N(C2CC2)CCS3(=O)=O)n1 [Example 325, 4-cyclopropyl-7-(2-((2-ethyl-4-((1R,5S)-8-methyl-3,8-diazabicyclo[3.2.1]octan-3-yl)phenyl)amino)-5-(trifluoromethyl)pyrimidin-4-yl)-3,4-dihydrothieno[2,3-f][1,4]thiazepin-5(2H)-one 1,1-dioxide] | ≤ 5
C[C@@H]1CN(c2ccc(Nc3ncc(C(F)(F)F)c(-c4cc5c(s4)C(=O)N(C4CC4)CCS5(=O)=O)n3)c(C3CC3)c2)C[C@H](C)N1 [Example 326, 4-cyclopropyl-7-(2-((2-cyclopropyl-4-((3S,5R)-3,5-dimethylpiperazin-1-yl)phenyl)amino)-5-(trifluoromethyl)pyrimidin-4-yl)-3,4-dihydrothieno[2,3-f][1,4]thiazepin-5(2H)-one 1,1-dioxide] | ≤ 5
C[C@H]1CN(c2ccc(Nc3ncc(C(F)(F)F)c(-c4cc5c(s4)C(=O)N(C4CC4)CCS5(=O)=O)n3)c(C3CC3)c2)C[C@H](C)N1 [Example 327, 4-cyclopropyl-7-(2-((2-cyclopropyl-4-((3S,5S)-3,5-dimethylpiperazin-1-yl)phenyl)amino)-5-(trifluoromethyl)pyrimidin-4-yl)-3,4-dihydrothieno[2,3-f][1,4]thiazepin-5(2H)-one 1,1-dioxide] | ≤ 5
C[C@H]1CN(c2ccc(Nc3ncc(C(F)(F)F)c(-c4cc5c(s4)C(=O)N(C4CC4)CCS5(=O)=O)n3)c(C3CC3)c2)C[C@H](C)N1C [Example 328, 4-cyclopropyl-7-(2-((2-cyclopropyl-4-((3S,5S)-3,4,5-trimethylpiperazin-1-yl)phenyl)amino)-5-(trifluoromethyl)pyrimidin-4-yl)-3,4-dihydrothieno[2,3-f][1,4]thiazepin-5(2H)-one 1,1-dioxide] | 5 to 10
O=C1c2sc(-c3nc(Nc4ccc(N5C[C@H]6C[C@@H]5CN6)cc4C4CC4)ncc3C(F)(F)F)cc2S(=O)(=O)CCN1C1CC1 [Example 329, 7-(2-((4-((1R,4R)-2,5-diazabicyclo[2.2.1]heptan-2-yl)-2-cyclopropylphenyl)amino)-5-(trifluoromethyl)pyrimidin-4-yl)-4-cyclopropyl-3,4-dihydrothieno[2,3-f][1,4]thiazepin-5(2H)-one 1,1-dioxide] | ≤ 5
CN1C[C@H]2C[C@@H]1CN2c1ccc(Nc2ncc(C(F)(F)F)c(-c3cc4c(s3)C(=O)N(C3CC3)CCS4(=O)=O)n2)c(C2CC2)c1 [Example 330, 4-cyclopropyl-7-(2-((2-cyclopropyl-4-((1R,4R)-5-methyl-2,5-diazabicyclo[2.2.1]heptan-2-yl)phenyl)amino)-5-(trifluoromethyl)pyrimidin-4-yl)-3,4-dihydrothieno[2,3-f][1,4]thiazepin-5(2H)-one 1,1-dioxide] | ≤ 5
C[C@H]1CN(c2ccc(Nc3ncc(C(F)(F)F)c(-c4cc5c(s4)C(=O)N(C4CC4)CCS5(=O)=O)n3)c(C3CC3)c2)CCN1 [Example 331, (S)-4-cyclopropyl-7-(2-((2-cyclopropyl-4-(3-methylpiperazin-1-yl)phenyl)amino)-5-(trifluoromethyl)pyrimidin-4-yl)-3,4-dihydrothieno[2,3-f][1,4]thiazepin-5(2H)-one 1,1-dioxide] | ≤ 5
C[C@H]1CN(c2ccc(Nc3ncc(C(F)(F)F)c(-c4cc5c(s4)C(=O)N(C4CC4)CCS5(=O)=O)n3)c(C3CC3)c2)CCN1C [Example 332, (S)-4-cyclopropyl-7-(2-((2-cyclopropyl-4-(3,4-dimethylpiperazin-1-yl)phenyl)amino)-5-(trifluoromethyl)pyrimidin-4-yl)-3,4-dihydrothieno[2,3-f][1,4]thiazepin-5(2H)-one 1,1-dioxide] | ≤ 5
CN1C[C@H]2C[C@@H]1CN2c1ccc(Nc2ncc(C(F)(F)F)c(-c3cc4c(s3)C(=O)N(C3COC3)CCS4(=O)=O)n2)c(C2CC2)c1 [Example 334, 7-(2-((2-cyclopropyl-4-((1R,4R)-5-methyl-2,5-diazabicyclo[2.2.1]heptan-2-yl)phenyl)amino)-5-(trifluoromethyl)pyrimidin-4-yl)-4-(oxetan-3-yl)-3,4-dihydrothieno[2,3-f][1,4]thiazepin-5(2H)-one 1,1-dioxide] | ≤ 5
CCc1cc(N2C[C@@H]3C[C@H]2CN3)ccc1Nc1ncc(C(F)(F)F)c(-c2cc3c(s2)C(=O)N(C2COC2)CCS3(=O)=O)n1 [Example 335, 7-(2-((4-((1S,4S)-2,5-diazabicyclo[2.2.1]heptan-2-yl)-2-ethylphenyl)amino)-5-(trifluoromethyl)pyrimidin-4-yl)-4-(oxetan-3-yl)-3,4-dihydrothieno[2,3-f][1,4]thiazepin-5(2H)-one 1,1-dioxide] | ≤ 5
CCc1cc(N2C[C@H]3C[C@@H]2CN3)ccc1Nc1ncc(C(F)(F)F)c(-c2cc3c(s2)C(=O)N(C2COC2)CCS3(=O)=O)n1 [Example 336, 7-(2-((4-((1R,4R)-2,5-diazabicyclo[2.2.1]heptan-2-yl)-2-ethylphenyl)amino)-5-(trifluoromethyl)pyrimidin-4-yl)-4-(oxetan-3-yl)-3,4-dihydrothieno[2,3-f][1,4]thiazepin-5(2H)-one 1,1-dioxide] | ≤ 5
CCc1cc(N2C[C@H]3CC[C@@H](C2)N3)ccc1Nc1ncc(C(F)(F)F)c(-c2cc3c(s2)C(=O)N(C2COC2)CCS3(=O)=O)n1 [Example 337, 7-(2-((4-((1R,5S)-3,8-diazabicyclo[3.2.1]octan-3-yl)-2-ethylphenyl)amino)-5-(trifluoromethyl)pyrimidin-4-yl)-4-(oxetan-3-yl)-3,4-dihydrothieno[2,3-f][1,4]thiazepin-5(2H)-one 1,1-dioxide] | ≤ 5
O=C1c2sc(-c3nc(Nc4ccc(N5CC6CC(C5)N6)cc4C4CC4)ncc3C(F)(F)F)cc2S(=O)(=O)CCN1C1CC1 [Example 338, 7-(2-((4-(3,6-diazabicyclo[3.1.1]heptan-3-yl)-2-cyclopropylphenyl)amino)-5-(trifluoromethyl)pyrimidin-4-yl)-4-cyclopropyl-3,4-dihydrothieno[2,3-f][1,4]thiazepin-5(2H)-one 1,1-dioxide] | ≤ 5
CN1C2CC1CN(c1ccc(Nc3ncc(C(F)(F)F)c(-c4cc5c(s4)C(=O)N(C4CC4)CCS5(=O)=O)n3)c(C3CC3)c1)C2 [Example 339, 4-cyclopropyl-7-(2-((2-cyclopropyl-4-(6-methyl-3,6-diazabicyclo[3.1.1]heptan-3-yl)phenyl)amino)-5-(trifluoromethyl)pyrimidin-4-yl)-3,4-dihydrothieno[2,3-f][1,4]thiazepin-5(2H)-one 1,1-dioxide] | ≤ 5
O=C1c2sc(-c3nc(Nc4ccc(N5CC6CC(C5)N6)cc4C4CC4)ncc3C(F)(F)F)cc2S(=O)(=O)CCN1C1COC1 [Example 340, 7-(2-((4-(3,6-diazabicyclo[3.1.1]heptan-3-yl)-2-cyclopropylphenyl)amino)-5-(trifluoromethyl)pyrimidin-4-yl)-4-(oxetan-3-yl)-3,4-dihydrothieno[2,3-f][1,4]thiazepin-5(2H)-one 1,1-dioxide] | ≤ 5
